Results: patent US4769374A, “Tetrahydroisoquinoline ethyl esters of 1,4-dihydropyridines and antihypertensive compositions” (Poli Industria Chimica S.p.A., priority 1984, dated 1988)

Key:
[1] = system: spontaneous hypertensive rats (systolic pressure of the caudal artery); assay: Antihypertensive activity per os in spontaneous hypertensive rats; assay type: in vivo, rat; details: 3 mg/kg p.o., percentage of the decrease of the systolic pressure
Protocol: The antihypertensive activity was determined by administering spontaneous hypertensive rats with the compounds of the invention, by oral route, as a suspension in carboxymethylcellulose containing 0.5% of physiologic solution. […] The obtained results are reported in Table 2, and are expressed as the percentage of the decrease of the sistolic pressure after treatment.

[2] = in vivo; details: mouse, mice of both sexes, oral, day 14 of observation
Protocol: The acute toxicity was determined on mice of both sexes upon oral administration of the compounds to be tested as a suspension in carboxymethylcellulose containing 0.5% of physiologic solution, and it was expressed as an LD50 value at day 14 of observation.

| Structure (SMILES) | Pressure variations (pressure time 0 - less pressure after administration), 15 min. [1] [%] | Pressure variations (pressure time 0 - less pressure after administration), 1 h [1] [%] | Pressure variations (pressure time 0 - less pressure after administration), 3 h [1] [%] | Pressure variations (pressure time 0 - less pressure after administration), 5 h [1] [%] | LD50 at 336 h [2] [mg/kg] |
| --- | --- | --- | --- | --- | --- |
| CCOC(=O)C1=C(C)NC(C)=C(C(=O)OCCN2CCc3ccccc3C2)C1c1cccc([N+](=O)[O-])c1 (stereo not drawn) [I, R = C2 H5] | 43 ± 10.2 | 31 ± 7.1 | 22 ± 9.4 | 11 ± 6.9 | 1000 |
| COC(=O)C1=C(C)NC(C)=C(C(=O)OCCN2CCc3ccccc3C2)C1c1cccc([N+](=O)[O-])c1.Cl (stereo not drawn) [I, R = CH3, 2-(1,2,3,4-Tetrahydro-isoquinoline-2-yl)ethyl 1,4-dihydro-2,6-dimethyl-4-(3-nitrophenyl)-5-methoxycarbonyl-pyridine-3-carboxylate, mono-hydrochloride] | 54 ± 6.4 | 86 ± 7.3 | 73 ± 12.8 | 49 ± 8.7 | 1000 |
| CC1=C(C(=O)OCCN2CCc3ccccc3C2)C(c2cccc([N+](=O)[O-])c2)C(C(=O)OC(C)C)=C(C)N1 (stereo not drawn) [I, R = CH(CH3)2] | 39 ± 7.6 | 38 ± 6.9 | 18 ± 6.1 | 2 ± 3.1 | 1000 |
| COC(=O)C1=C(C)NC(C)=C(C(=O)OCCN(C)Cc2ccccc2)C1c1cccc([N+](=O)[O-])c1 (stereo not drawn) [Nicardipine, reference compound] | 49 ± 11.3 | 52 ± 9.7 | 36 ± 6.2 | 21 ± 5.8 | 350 |
| COC(=O)C1=C(C)NC(C)=C(C(=O)OC)C1c1ccccc1[N+](=O)[O-] [Nifedipine, reference compound] | 41 ± 5.4 | 23 ± 6.1 | 12 ± 4.3 | 9 ± 5.6 |  |
